The text below walks through data of patent EP0344708A2, “Composition for external application to skin” (LION CORPORATION, priority 1988, dated 1989).

One series has as its system incised wound. The series can be described thus: Incised wound healing in rats (tension needed to peel skin at the wound, tensile strength tester). The series is classed as in vivo, Wistar male rats. Particulars: relative to control (physiological saline) = 100; Concn. 0.5 % in saline, subcutaneously once a day for 7 days, 0.67 ml/kg/day; tension measured 8 days after operation; 8 rats per group. The source says:
Groups of Wistar male rats (SPF; each group comprising 8 animals) were anesthetized with Nembutal® pentobarbital sodium) injection and hair was removed from the back of each rat over a wide area. After disinfecting the area with alcohol, a sharp incised wound having a length of 4 cm was mesially formed with a scalpel and it was stitched up, with Mitchell needles, at three positions at regular intervals (the Mitchell needles were removed 4 days after the operation).
After forming incised wound, an effective component was dissolved in a saline solution and administered subcutaneously once a day for 7 days successively (dose: 0.67 m ℓ/kg/day). The animals were sacrificed 8 days after the operation, the skin of the wounded part was peeled off to remove subcutis followed by preparing three pieces of the skin perpendicular to the line of the incised wound, having a width of 1 cm, per rat and determining tention (g/cm) required for peeling off each piece of the skin at the incised wound portion utilizing a tensile strength tester. The relative value of the average of the measured tension with respect to that of the control was defined as an indication of the rate of healing of the wound. The results obtained are listed in Table III given below (the results are expressed in the value relative to that of the control which is defined as 100).

The test system of the next series is defective wound. In words: Circular defective wound in rats (weight of regenerated granulation). Format: in vivo, Wistar male rats. Particulars: relative to control (10% ethanol aqueous solution) = 100; Concn. 0.1 % in 10% ethanol aqueous solution, applied to wound twice a day, 1 ml per application, 5 days; granulation weight 6 days after wounding; 6 rats per group. On the procedure: Groups of Wistar male rats (SPF; each group comprising 6 animals) were anesthetized and hair was removed from the back of each rat. Then a circular defective wound having a diameter of 12 mm was formed on the skin of the back from which hair had been removed.
After forming the defective wound, an effective component was dissolved in 10% ethanol aqueous solution and applied to the wounded portion twice a day in a dose of 1 mℓ per application for 5 days successively. 6 Days after the formation of the wound, the animals were sacrificed to cut off the formed granulation from the defective portion and the weight of the granulation was determined. The relative value of the average of the measured weight with respect to that of the control was defined as an indication of the rate of healing of the defective wound. The results obtained are listed in Table IV given below (the results are expressed in the value relative to that of the control which is defined as 100).

Series [1] in a line: Stability of the compound in the used composition after the use test, HPLC. Format: physicochemical. Particulars: on the average, 131400 min.

With `CC(C)(COP(=O)(O)OP(=O)(O)OC[C@H]1O[C@@H](n2cnc3c(N)ncnc32)[C@H](O)[C@@H]1OP(=O)(O)O)[C@@H](O)C(=O)NCCC(=O)NCCS` [Coenzyme A ·3Na, reference compound], the “Rate of Relative Healing” value with incised wound amounted to 117. Besides, the “Rate of Regenerated Granulation” value in the series on defective wound is 119.

`CC(C)(COP(=O)(O)OP(=O)(O)OC[C@H]1O[C@@H](n2cnc3c(N)ncnc32)[C@H](O)[C@@H]1OP(=O)(O)O)[C@@H](O)C(=O)NCCC(=O)NCCSSCCNC(=O)CCNC(=O)[C@H](O)C(C)(C)COP(=O)(O)OP(=O)(O)OC[C@H]1O[C@@H](n2cnc3c(N)ncnc32)[C@H](O)[C@@H]1OP(=O)(O)O` [Compound I-A ·2Ca]: the “rate of Compound I-A ·2Ca remaining in the milky lotion” value in series [1] (in the used milky lotion (0.05 %) after completion of the 3-month test) is given as 98.8%.

Consider `CC(C)(COP(=O)(O)OP(=O)(O)OC[C@H]1O[C@@H](n2cnc3c(N)ncnc32)[C@H](O)[C@@H]1OP(=O)(O)O)[C@@H](O)C(=O)NCCC(=O)NCCSSCCNC(=O)CCNC(=O)[C@H](O)C(C)(C)COP(=O)(O)OP(=O)(O)OC[C@H]1O[C@@H](n2cnc3c(N)ncnc32)[C@H](O)[C@@H]1OP(=O)(O)O` [Compound I-A ·6Na], for which, in the series with incised wound, the “Rate of Relative Healing” value stood at 126. For the same compound, the “Rate of Regenerated Granulation” value in the series with defective wound is 148. Further, the “rate of Compound I-A ·6Na remaining in the beauty essence” value in series [1] (in the used beauty essence (0.1 %) after completion of the 3-month test) came to 98.5%.

Consider `CC(C)(COP(=O)(O)OP(=O)(O)OC[C@H]1O[C@@H](n2cnc3c(N)ncnc32)[C@H](O)[C@@H]1OP(=O)(O)O)[C@@H](O)C(=O)NCCC(=O)NCCSSCCNC(=O)CCNC(=O)[C@H](O)C(C)(C)COP(=O)(O)OP(=O)(O)OC[C@H]1O[C@@H](n2cnc3c(N)ncnc32)[C@H](O)[C@@H]1OP(=O)(O)O` [Compound I-A], for which the “rate of the remaining Compound I-A” value in series [1] (in the used toilet water (0.1 %) after completion of the 3-month test) was found to be 97.8%.
